Assay results published in US20020127544A1, “Modulators of US 28” (priority 2000, published 2002).
Structures can show the parent of a compound that is named as a salt. Where two headings read alike, the source gives them in different places.

Experiments:
US28 [1] = molecular target: T1, US28 (Human cytomegalovirus, UniProt P69332); assay: cytoplasmic calcium mobilization in US28-293 cells; assay type: cell-based, Cytomegalovirus (CMV); set-up: expressed in transfected cells; host or cells: human 293 cells (US28-293); details: INDO-1 dye, mimicking the action of fractalkine in binding and signaling (FIG. 2)
T1 sequence (P69332 whole entry): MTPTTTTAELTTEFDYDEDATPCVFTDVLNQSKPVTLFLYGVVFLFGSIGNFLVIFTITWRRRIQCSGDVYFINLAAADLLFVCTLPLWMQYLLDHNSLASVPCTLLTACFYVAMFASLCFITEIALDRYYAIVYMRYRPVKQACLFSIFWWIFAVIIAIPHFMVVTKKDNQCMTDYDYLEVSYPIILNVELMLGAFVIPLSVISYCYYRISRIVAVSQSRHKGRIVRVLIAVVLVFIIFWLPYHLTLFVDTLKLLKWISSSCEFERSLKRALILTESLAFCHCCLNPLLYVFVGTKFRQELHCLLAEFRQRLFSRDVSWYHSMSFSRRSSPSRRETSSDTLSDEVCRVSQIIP
Method: For each test, 1×10^6 cells were incubated at 37° C. in the cuvette of a PTI spectrometer, and the ratio of 410/490 nm emission plotted over time (typically 2-3 minutes), with compounds added at 5 seconds, followed by fractalkine at 60 seconds. […] Compounds which inhibited fractalkine binding were tested in this assay for the effects on Ca2+ in this system.
Methiothepin mesylate (from the RBI division of Sigma Chemical Co., St. Louis, Mo., USA, Catalog No. M-149) and octoclothepin maleate (from RBI, Catalog No. O-111) were evaluated in the assays described in Examples 1 and 2. The IC50 values were 0.3 μM for methiothepin mesylate and 0.7 μM for octoclothepin maleate.

US28 [2] = molecular target: T1, US28; assay: 125I-fractalkine radioligand binding to US28 on US28-NSO cells; set-up: host or cells: mouse NSO cells (US28-NSO); species or system Cytomegalovirus (CMV)
Method: The US28 expressing cells used in most assays consist of a mouse cell line (NSO cells from ATCC) stably expressing transfected US28 cDNA under the control of a CMV promoter (from R & D Systems). These cells were cultured in IMDM-5% FBS, and harvested when the concentration was between 0.5-1.0×10^6 cells/mL. Some assays were performed with adherent human 293 cells (US28-293 cells) or membranes. The cells were centrifuged and resuspended in assay buffer (20 mM HEPES, 140 mM NaCl, 1 mM CaCl2, 5 mM MgCl2, and with 0.2% bovine serum albumin) to a concentration of 5.6×10^6 cells/mL. Using the Multi-Probe automated system, set up with 8 assay plates at a time, first 0.09 mL of cells was added to the assay plates containing the compounds. The final concentration of the compounds was 5 μg/mL each. Then 0.09 mL of ^1251I-fractalkine diluted in assay buffer (final concentration ˜2-10fM, with ˜30,000 cpm per well) was added, the plates sealed and incubated for approximately 3 hours at 4 degrees C on a shaker platform. […] Scintillation fluid (35 μL) was added to all wells, the plates were sealed and counted in a Top Count scintillation counter. […]
Methiothepin mesylate (from the RBI division of Sigma Chemical Co., St. Louis, Mo., USA, Catalog No. M-149) and octoclothepin maleate (from RBI, Catalog No. O-111) were evaluated in the assays described in Examples 1 and 2. […]

US28 [3] = molecular target: T1, US28; set-up: host or cells: mouse NSO cells (US28-NSO); details: CX3C chemokine binding to US28; read-out: KI, binding affinity to US28; cited from earlier work

In the case of `CN1CCN(C2Cc3ccccc3Sc3ccc(Cl)cc32)CC1.O=C(O)/C=C\C(=O)O` (centres unmarked) [octoclothepin maleate, octoclothepin], the “mode of action in calcium mobilization” value (US28 [1]) is reported as “competitive agonists” and the IC50 (US28 [2]; dose response against fractalkine on US28-NSO cells (FIG. 1), read-out: IC50, inhibition of fractalkine binding to US28) is reported as 700 nM.

For `CSc1ccc2c(c1)C(N1CCN(C)CC1)Cc1ccccc1S2` (centres unmarked) [methiothepin mesylate, methiothepin], the “mode of action in calcium mobilization” value (US28 [1]) was “competitive agonists” and the IC50 (US28 [2]) was 300 nM.

B1: Fractalkine: the CX3C chemokine, ligand of US28 (protein, UniProt P78423 25-397, looked up)
Fractalkine: QHHGVTKCNITCSKMTSKIPVALLIHYQQNQASCGKRAIILETRQHRLFCADPKEQWVKDAMQHLDRQAAALTRNGGTFEKQIGEVKPRTTPAAGGMDESVVLEPEATGESSSLEPTPSSQEAQRALGTSPELPTGVTGSSGTRLPPTPKAQDGGPVGTELFRVPPVSTAATWQSSAPHQPGPSLWAEAKTSEAPSTQDPSTQASTASSPAPEENAPSEGQRVWGQGQSPRPENSLEREEMGPVPAHTDAFQDWGPGSMAHVSVVPVSSEGTPSREPVASGSWTPKAEEPIHATMDPQRLGVLITPVPDAQAATRRQAVGLLAFLGLLFCLGVAMFTYQSLQGCPRKMAGEMAEGLRYIPRSCGSNSYVLVPV
For B1, the Ki (US28 [3]) is given as roughly 0.05 nM.
